Laboratory results as given in patent publication US9073880B2, “2-(2-phenylethenyl) 1,3-benzodiazepine derivatives useful for the treatment of cancer” (Yissum Research Development Company of the Hebrew …, priority 2010, dated 2015).

Test system: human Ewing sarcoma SK-ES-1 cells
Test: Cell proliferation, SK-ES-1 (Example 4)
Type: cell-based
Conditions: SK-ES1, SK-ES-1, Ewing sarcoma, compound in 2-hydroxypropyl-β-cyclodextrin
Description: Human ovary cancer A2780 cells lines were seeded at a density of 5000 cells/well, human melanoma A375 cells were plated at a density of 2,500 cells/well, human colon carcinoma HCT15 cells were plated at a density of 3,000 cells/well, human prostate carcinoma PC3 cells were plated at a density of 1,500 cells/well, human breast carcinoma MCF7 cells were plated at a density of 5,000 cells/well, human breast carcinoma MDA MB 468 cells were plated at a density of 6,000 cells/well, human myeloma U266, RPMI8226 and CAG cells were plated at a density of 10,000 cells/well. All cells were plated in 96-well plates in 90 μl growth medium containing 10% FCS, 100 units/ml penicillin and 100 μg/ml streptomycin. Compound 3 was added a day later in […] of 1% DMSO in DDW to obtain final concentrations of 0, 0.1, 0.3, 1, 3, and 10 μM. The final concentration of DMSO (0.1% DMSO) was kept constant in all samples. Following exposure of the cells to compound 3 for 72 hours at 37° C., adhered cells were fixed in 0.5% gluteraldehyde in medium for 10 min, washed three times with DDW, once with 0.1M sodium borate buffer pH 8.5 and stained with 1% methylene blue dissolved in 0.1M borate buffer solution for 60 min. Excess dye was washed out and cell-bound dye was eluted with 200 μl/well of 0.1M HCl. The optical density values were read at 630 nm in ELISA plate reader. Non-adhered cells were exposed to WST-1 reagent for 5 hours following 72 hours treatment with the inhibitors, and optical density values were read at 630 nm in ELISA plate reader. The data was analyzed in Microsoft Excel, using the vehicle control as 100% proliferation. The assays were performed in triplicates. The values of IC50 were derived from the dose-dependent growth curves obtained.
Cell proliferation assay was performed as described in Example 2. […]

Compound | IC50
O=c1c(O)cc2cnc(/C=C/c3cc(O)c(O)c(Br)c3)sc-2c1O [Compound 3] | 300 nM
O=c1c(O)cc2cnc(/C=C/c3ccc(O)c(O)c3Br)sc-2c1O [Compound 5] | 600 nM
